# Values of other authors as cited in patent US20110308985A1, “COMPOSITION OF A LIPOSOMAL GEL CONTAINING HYDROCORTISONE, ITS METABOLITES, PRECURSORS OR MIXTURES THEREOF AND THE USE THEREOF” (priority 2009, published 2011).
smiles,measurement,setting,value
"C[C@]12CCC(=O)C=C1CC[C@@H]1[C@@H]2[C@@H](O)C[C@@]2(C)[C@H]1CC[C@]2(O)C(=O)CO [hydrocortisone, (11beta)-11,17,21-trihydroxypregn-4-ene-3,20-dione]",serum peak relative to the physiological morning peak,about 1 hour after intake of a tablet,over 3 times
same,biological half-life,oral administration form,about 100 minutes
